According to PubChem BioAssay AID1625 (Sanford-Burnham Center for Chemical Genomics, 2009):
pEC50: −log10 of the molar value. Active and inactive are the calls of the source.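 Rule for the calls: active = z-score above 3 at 5 µM with at least 500 cells counted in the well; inconclusive = wells under 500 cells, flagged as cytotoxic or low count; inactive = the rest.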

System: MIN6 insulin promoter-GFP reporter, high-content imaging
Assay: up-regulation of insulin promoter-GFP reporter – imaging, high-content screening, mouse beta cells (AID 1625)

Structure (SMILES) | EC50 | pEC50
O=[N+]([O-])c1ccc(N/N=C/c2ccc[nH]2)cc1 | > 16 µM (inactive) | 
COc1ccc2c(C)cc(SCC(=O)N(C)C3CCS(=O)(=O)C3)nc2c1 (configuration not stated) | > 16 µM (inactive) | 
CCCCn1nc(-c2ccccc2)c2nc3ccccc3nc21 | > 16 µM (inactive) | 
CCCCCn1nc(-c2ccccc2)c2nc3ccccc3nc21 |  | 5.06
CCN(CC)c1ccc(/C=C(/C#N)C(=O)NC(C)C)o1 | > 16 µM (inactive) | 
CCCC1C2CN(C(C)C)CC=C2C(C#N)=C(N)C1(C#N)C#N (configuration not stated) |  | 5.26
COc1cc([C@@H]2[C@H]3CNCC=C3C(C#N)=C(N)C2(C#N)C#N)ccc1OC(C)C | > 16 µM (inactive) | 
O=C1S/C(=C/c2ccc(N3CCOCC3)o2)C(=O)N1Cc1ccc(F)cc1 | > 16 µM (inactive) | 
O=C(O)c1ccccc1N/N=C/c1c(Sc2nnnn2-c2ccccc2)nc2ccccn2c1=O |  | 5.22
O=[N+]([O-])c1ccc(N2N=C(c3ccco3)CC2c2ccccc2)cc1 (configuration not stated) | > 16 µM (inactive) | 
COc1ccccc1NS(=O)(=O)c1cc([N+](=O)[O-])ccc1N/N=C/c1sc(N2CCOCC2)nc1-c1ccccc1 |  | 5.74
CCN1CC=C2C(C#N)=C(N)C(C#N)(C#N)C(c3cc(Cl)ccc3Cl)C2C1 (configuration not stated) |  | 5.06
COc1cc(OC)c(OC)cc1/C=C1\Oc2cc(OS(C)(=O)=O)ccc2C1=O | > 16 µM (inactive) | 
COc1cc2c(cc1OC)C1=CC(=O)C(=O)N1C(C)(C)C2 | 11.5 µM (inactive) | 
Nc1c(C(=O)C2CC2)sc2nc(-c3cccs3)cc(C(F)(F)F)c12 |  | 5.38
CCN(CC)c1ccc2cc(/C(N)=N/NC(=O)c3cccs3)c(=O)oc2c1 | 13.8 µM (inactive) | 
CC(=O)c1cc(NC(=O)c2ccc(Cl)cc2)c(=O)oc1/C=C/N(C)C | > 16 µM (inactive) | 
Cn1c(=O)c(N)c2c3c(c(Br)ccc31)C(=O)c1ccccc1-2 |  | 5.05
N#C/C(=C\c1ccc(N2CCOCC2)o1)c1nc2ccccc2[nH]1 |  | 5.47
N#C/C(=C/c1ccc(N2CCCCC2)o1)C(=O)Nc1ccc2ccccc2c1 |  | 6.25
Cc1ccc(CNc2ccc3c(c2)OCO3)cc1 | > 16 µM (inactive) | 

Structure (SMILES) | EC50 | pEC50
CCN(CC)c1ccc(/C=C2/SC(=O)N(C(C)C)C2=O)o1 |  | 5.37
CN1C=CC2=C(C#N)C(N)C(C#N)(C#N)C(c3ccccc3)C2C1 (configuration not stated) |  | 5.13
O=S(=O)([O-])CCC[n+]1c(/C=C\Nc2ccccc2)oc2ccc(-c3ccccc3)cc21 |  | 5.48
CCN1CC=C2C(C1)C(c1ccc(Cl)s1)C(C#N)=C(N)C2(C#N)C#N (configuration not stated) |  | 5.05
Cn1cc(/C=C2\SC(=S)N(NC(=O)c3ccccc3Cl)C2=O)c2ccccc21 | > 16 µM (inactive) | 
COC(=O)c1cc2c(-c3ccccc3)c(C)c3ccccn3c-2c1C(=O)OC | > 16 µM (inactive) | 
Cc1cc(N2CCCC2)ccc1/C=C1/C(=O)N(C)C(=S)N1C | > 16 µM (inactive) | 
C(=C/c1nccc2c1[nH]c1ccccc12)/c1ccc2c(c1)OCO2 | 11.9 µM (inactive) | 
CCCN(CCC)c1ccc(/C=C/c2ccc3cc(OCC)ccc3n2)cc1 | > 16 µM (inactive) | 
CN1CC=C2C(C#N)=C(N)C(C#N)(C#N)[C@H](c3ccoc3)[C@H]2C1 | 11.2 µM (inactive) | 
CSc1c(C#N)c(N)nc2sc(C(=O)c3ccc(Cl)c(Cl)c3)c(N)c12 | > 16 µM (inactive) | 
CN1CCS/C1=C/C=C1/SC(=S)N(Cc2ccccc2)C1=O | > 16 µM (inactive) | 
CCOC(=O)N1CCN(S(=O)(=O)c2ccc3c(c2)oc(=O)n3C)CC1 | > 16 µM (inactive) | 
O=[N+]([O-])c1ccc(N(c2ccccc2)c2ccccc2)cc1 | > 16 µM (inactive) | 
CN(C)c1ccc(/C=C2\CCC/C(=C\c3ccccc3)C2=O)cc1 | > 16 µM (inactive) | 
CCOc1cc([N+](=O)[O-])cc2c1C(=O)Nc1ccccc1O2 | > 16 µM (inactive) | 
CCN(CC)c1ccc(/C=C(\C#N)C(=O)c2ccc(Br)cc2)cc1 | 12 µM (inactive) | 
Cc1ccc(Nc2nc(Cl)c(C=O)s2)cc1Cl | > 16 µM (inactive) | 
O=[N+]([O-])c1ccc(N/N=C/c2sc(N3CCOCC3)nc2-c2ccccc2)c(S(=O)(=O)Nc2ccccc2Cl)c1 | > 16 µM (inactive) | 
CN1CC=C2C(C#N)=C(N)C(C#N)(C#N)C(c3ccsc3)C2C1 (configuration not stated) | 10.4 µM (inactive) | 
CCN(CC)c1ccc2cc(-c3nc4ccccc4[nH]3)c(=O)oc2c1 |  | 6.55

Structure (SMILES) | EC50 | pEC50
Cc1ccc(S(=O)(=O)CCSc2nc(C)cc(C(F)(F)F)c2C#N)cc1 | > 16 µM (inactive) | 
COc1cc2c3nnc(-c4ccc(F)cc4)c-3cn(Cc3ccccc3)c2cc1OC |  | 5.54
CCCCN1C(=O)/C(=C/C=C2\Oc3ccccc3N2CC)SC1=S |  | 6.02
C=CCN1C(=O)/C(=C/c2ccc(N3CCOCC3)o2)C(=O)NC1=S | > 16 µM (inactive) | 
CCN1C(=O)/C(=C/C=C2\N(CC)c3cc(S(=O)(=O)N(C)C)ccc3N2c2ccccc2)SC1=S |  | 5.18
CN1CC=C2C(C#N)=C(N)C(C#N)(C#N)[C@H](c3cccs3)[C@H]2C1 | 11.1 µM (inactive) | 
COc1cccc2sc(NNC(=O)C3=COCCO3)nc12 | > 16 µM (inactive) | 
Nc1c(C(=O)C2CC2)sc2nc(-c3ccccc3)cc(C(F)(F)F)c12 |  | 5.06
CCN1CCc2c(sc(NC(=S)NC(=O)c3ccc(Cl)cc3)c2C(N)=O)C1 | 14.1 µM (inactive) | 
Nc1ccc2c(c1)Cc1cc([N+](=O)[O-])ccc1-2 |  | 5.02
CCCCN1C(=O)/C(=C/C=C2\SCCN2C)SC1=S |  | 5.04
CCCNC(=O)Cn1c(=O)/c(=C\c2ccc(-c3ccc([N+](=O)[O-])cc3)o2)s/c1=C\C(=O)C(C)(C)C |  | 6.44
O=C(O)c1cc(-c2ccc(/C=C3/SC(=S)N(Cc4ccccc4)C3=O)o2)ccc1Cl | 10.5 µM (inactive) | 
O=C1/C(=C/c2ccc(N3CCCC3)cc2)NC(=S)N1C1CC1 |  | 5.13
CC(=O)c1ccc2cccc3c2c1N=CN3C | > 16 µM (inactive) | 
N#CC(C#N)=C1C=C2C=C(N3CCCCC3)CCC2CC1 (configuration not stated) |  | 6.19
Cc1[nH]c2ccccc2c1/C=N/Nc1ccc([N+](=O)[O-])cc1S(=O)(=O)Nc1ccc(Cl)cc1 | > 16 µM (inactive) | 
COc1cc(N2CCCC2)c(OC)cc1/C=C(/C#N)c1cccc(Br)c1 |  | 5.32
CC(=O)Cc1cc(O)c2ccccc2c1OC(=O)c1ccc(Br)cc1 | > 16 µM (inactive) | 
CCOC(=O)Cc1csc(NC(=O)c2sc3nc4c(C)cc(C)cc4cc3c2N)n1 | > 16 µM (inactive) | 
